Values belong to the compound of their own block, whether it stands above or below them.
Assays:
apple leaf cuticles [1] = test: Penetration of Flufenacet through isolated apple leaf cuticles in the presence of test substances; settings: apple, 0.75 g/L
Text: (§1) Surfactants can affect the absorption of (active) ingredients through membranes such as skin, films or the plant cuticle. As a “finite-dose” application, it is known for the single administration or application of a solution, cream, gel etc. to a membrane that the absorption of active ingredient can be influenced by some additives such as surfactants even after wetting.
(§2) The principle of the method has been published and described in detail e.g. in WO-A-2005/194844 or WO2017211572 A1). The leaf cuticles were enzymatically isolated in the manner described in the literature from apple leaves of orchard trees in a commercial stone fruit growing facility near Frankfurt am Main in 2017. The stomata-free cuticles were first dried under air and then installed into stainless steel diffusion cells. After application to the original upper side of the leaf and evaporation of the test liquid, i.e. of the spray liquids of the active ingredients with or without the inventive substances or comparative compositions, the diffusion cells were transferred into thermostated blocks and charged with aqueous liquid. The water used to make up the aqueous test liquids was local tap water (of known composition). At regular intervals, aliquot samples were taken and the proportion of active ingredient penetrated was determined by HPLC or alternatively by radio-chemical method where radio-labelled active ingredient was used as tracer to determine the concentration. During the experiment, the temperature in the system (block, diffusion cells, liquids, etc.) and the air humidity above the spray deposit on the cuticle were controlled. […] The analytical determination by means of HPLC (1290 Infinity, Agilent) was effected thereafter with a Kinetex column 30×2, 1 mm, 2.6μ C18 100 A (Phenomenex), taking a 20 μL aliquot as injection volume at the specified times. In each case, the geometric mean values of the penetration for intact membranes at the mean measurement times are given.

apple leaf cuticles [2] = test: Penetration of Mesosulfuron-methyl through isolated apple leaf cuticles in the presence of test substances; assay type: in vitro ADME; settings: Mesosulfuron-methyl 0.1 g/L in spray liquid, no test substance, 10° C./61% rel. air humidity
Text: as §1, §2

apple leaf cuticles [3] = test: Penetration of lodosulfuron-methyl through isolated apple leaf cuticles in the presence of test substances; assay type: in vitro ADME; settings: lodosulfuron-methyl 0.1 g/L in spray liquid, no test substance, 10° C./61% rel. air humidity
Text: as §1, §2

apple leaf cuticles [4] = test: Penetration of MCPA through isolated apple leaf cuticles in the presence of test substances; settings: MCPA 1.5 g/L in spray liquid, no test substance, 25° C./56% rel. air humidity
Text: as §1
(§3) The principle of the method has been published and described in detail e.g. in WO-A-2005/194844 or WO2017211572 A1). The leaf cuticles were enzymatically isolated in the manner described in the literature from apple leaves of orchard trees in a commercial stone fruit growing facility near Frankfurt am Main in 2017. The stomata-free cuticles were first dried under air and then installed into stainless steel diffusion cells. After application to the original upper side of the leaf and evaporation of the test liquid, i.e. of the spray liquids of the active ingredients with or without the inventive substances or comparative compositions, the diffusion cells were transferred into thermostated blocks and charged with aqueous liquid. The water used to make up the aqueous test liquids was local tap water (of known composition). At regular intervals, aliquot samples were taken and the proportion of active ingredient penetrated was determined by HPLC or alternatively by radio-chemical method where radio-labelled active ingredient was used as tracer to determine the concentration. During the experiment, the temperature in the system (block, diffusion cells, liquids, etc.) and the air humidity above the spray deposit on the cuticle were controlled. In the experiment, relative air humidity was constant throughout at 56% relative air humidity (air over supersaturated calcium nitrate) at a constant 10° C. or 25° C. The analytical determination by means of HPLC (1290 Infinity, Agilent) was effected thereafter with a Kinetex column 30×2, 1 mm, 2.6μ C18 100 A (Phenomenex), taking a 20 μL aliquot as injection volume at the specified times. In each case, the geometric mean values of the penetration for intact membranes at the mean measurement times are given.

apple leaf cuticles [5] = test: Penetration of Mesotrione through isolated apple leaf cuticles in the presence of test substances; settings: Mesotrione 0.5 g/L in spray liquid, no test substance
Text: as §1
as §3, with “In each case, the geometric mean values of the penetration for intact membranes at the mean measurement times are given.” left out

[6] = Dynamic surface tension, bubble pressure method (BP2100 tensiometer, Krüss); assay type: physicochemical
Procedure: Dynamic surface tension was determined via the bubble pressure method (BP2100 tensiometer, Krüss). Given a timespan of relevance for the spray application of agrochemicals in aqueous dilution (called the surface age in the bubble pressure method) of 200 milliseconds (ms), the value for dynamic surface tension in [mN/m] correlates with the adhesion on plants that are difficult to wet, such as barley (cereal). A value of 50 mN/m (at 20-21° C.) with respect to water (72.8 mN/m) results in an improvement in the adhesion from “zero adhesion” (0%) to about 50% (Baur P., Pontzen R.; 2007; Basic features of plant surface wettability and deposit formation and the impact of adjuvant; in R. E. Gaskin ed. Proceedings of the 8th International Symposium on Adjuvants for Agrochemicals; Publisher: International Society for Agrochemical Adjuvants (ISAA), Columbus, Ohio, USA).

apple leaf cuticles [7] = test: Penetration of Imidacloprid through isolated apple leaf cuticles in the presence of test substances; settings: apple, 0.5 g/L
Text: as §1, §3

Compound: CC(C)N(C(=O)COc1nnc(C(F)(F)F)s1)c1ccc(F)cc1 [Flufenacet, reference compound]
Mean penetration for Flufenacet after time (apple leaf cuticles [1]; 1 day): 0.4%
Mean penetration for Flufenacet after time (apple leaf cuticles [1]; 2 days): 0.7%

Mean penetration for Mesosulfuron-methyl after time (apple leaf cuticles [2]; 1 day): 0%
Mean penetration for Mesosulfuron-methyl after time (apple leaf cuticles [2]; 2 days): 0%
Compound: COC(=O)c1ccc(CNS(C)(=O)=O)cc1S(=O)(=O)NC(=O)Nc1nc(OC)cc(OC)n1 [Mesosulfuron-methyl, reference compound]

Compound: COC(=O)c1ccc(I)cc1S(=O)(=O)NC(=O)Nc1nc(C)nc(OC)n1 [lodosulfuron-methyl, reference compound]
Mean penetration for lodosulfuron-methyl after time (apple leaf cuticles [3]; 1 day): 0%
Mean penetration for lodosulfuron-methyl after time (apple leaf cuticles [3]; 2 days): 0%

Compound: Cc1cc(Cl)ccc1OCC(=O)O [MCPA, reference compound]
Mean penetration for MCPA after time (apple leaf cuticles [4]; 0.5 day): 9.0%
Mean penetration for MCPA after time (apple leaf cuticles [4]; 1 day): 17.1%

Compound: CS(=O)(=O)c1ccc(C(=O)C2C(=O)CCCC2=O)c([N+](=O)[O-])c1 [Mesotrione]
Mean penetration for Mesotrione after time (apple leaf cuticles [5]; 1 day): 0%
Mean penetration for Mesotrione after time (apple leaf cuticles [5]; 2 days): 0%

Dynamic Surface tension ([6]; 0.3 g/L, 20 ms): 54.5 mN/m
Dynamic Surface tension ([6]; 0.3 g/L, 50 ms): 54.5 mN/m
Dynamic Surface tension ([6]; 0.3 g/L, 100 ms): 54.5 mN/m
Dynamic Surface tension ([6]; 0.3 g/L, 200 ms): 54.5 mN/m
Dynamic Surface tension ([6]; 1 g/L, 20 ms): 42.0 mN/m
Dynamic Surface tension ([6]; 1 g/L, 50 ms): 42.0 mN/m
Dynamic Surface tension ([6]; 1 g/L, 100 ms): 42.0 mN/m
Dynamic Surface tension ([6]; 1 g/L, 200 ms): 42.0 mN/m
Dynamic Surface tension ([6]; 3 g/L, 20 ms): 31.5 mN/m
Dynamic Surface tension ([6]; 3 g/L, 50 ms): 31.5 mN/m
Dynamic Surface tension ([6]; 3 g/L, 100 ms): 31.5 mN/m
Dynamic Surface tension ([6]; 3 g/L, 200 ms): 31.5 mN/m
Dynamic Surface tension ([6]; 10 g/L, 20 ms): 28.5 mN/m
Dynamic Surface tension ([6]; 10 g/L, 50 ms): 28.5 mN/m
Dynamic Surface tension ([6]; 10 g/L, 100 ms): 28.5 mN/m
Dynamic Surface tension ([6]; 10 g/L, 200 ms): 28.5 mN/m
Compound: C8/C10 fatty acid 6 EO ester methyl ether [A2]

Compound: O=[N+]([O-])NC1=NCCN1Cc1ccc(Cl)nc1 [Imidacloprid, reference compound]
Mean penetration for Imidacloprid after time (apple leaf cuticles [7]; 1 day): 0.5%
Mean penetration for Imidacloprid after time (apple leaf cuticles [7]; 4 days): 1.3%
